Data on 13 compounds can be found in US20250230165A1, “HETEROCYCLIC COMPOUNDS FOR USE IN THE TREATMENT OF CANCER” (ARTIOS PHARMA LIMITED, priority 2021, published 2025).

SMILES strings stand for the structures.

In the experiment the target is T1, Human Polθ polymerase domain (aa1820-2590) (Homo sapiens, UniProt O75417).
T1 construct: Human Polθ polymerase domain (aa1820-2590) was expressed in E. coli; made in house; host or cells: E. coli
T1 sequence (O75417 1820-2590): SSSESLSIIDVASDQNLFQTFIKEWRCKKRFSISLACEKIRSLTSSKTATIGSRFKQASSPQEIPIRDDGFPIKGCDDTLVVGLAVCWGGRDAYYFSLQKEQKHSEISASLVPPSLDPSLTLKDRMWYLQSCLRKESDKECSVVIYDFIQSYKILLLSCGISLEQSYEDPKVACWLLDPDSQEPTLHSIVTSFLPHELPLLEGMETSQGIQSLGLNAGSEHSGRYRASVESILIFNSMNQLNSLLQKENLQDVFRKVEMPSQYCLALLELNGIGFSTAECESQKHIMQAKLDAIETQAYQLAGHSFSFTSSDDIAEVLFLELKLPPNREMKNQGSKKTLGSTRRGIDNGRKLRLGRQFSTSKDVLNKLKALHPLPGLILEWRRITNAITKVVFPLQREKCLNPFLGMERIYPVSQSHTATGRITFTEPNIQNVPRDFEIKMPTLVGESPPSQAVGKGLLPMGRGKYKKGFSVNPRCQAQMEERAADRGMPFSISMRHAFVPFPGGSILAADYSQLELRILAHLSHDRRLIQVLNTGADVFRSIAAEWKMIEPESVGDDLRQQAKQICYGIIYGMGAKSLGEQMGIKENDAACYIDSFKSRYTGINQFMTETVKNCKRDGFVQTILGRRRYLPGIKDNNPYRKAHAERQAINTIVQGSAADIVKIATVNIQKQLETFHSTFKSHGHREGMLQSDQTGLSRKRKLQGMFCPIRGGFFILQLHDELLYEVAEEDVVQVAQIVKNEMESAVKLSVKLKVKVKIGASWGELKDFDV
Kind of experiment: Polθ Polymerase Domain Kinact/KI Assay (PicoGreen). In kind it is biochemical. The following applies: 0.8 nM Polθ, 100 nM DNA substrate, kobs vs [I] fit for 2-step covalent inhibitor. The gist of the method: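 PicoGreen fluorescence read-out of primer extension; progress curves per inhibitor concentration fitted for kobs, then kobs vs [I] fitted to a two-step covalent model to give Kinact and KI. Conditions: 0.8 nM enzyme, 100 nM DNA substrate, […].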
On to `C=CC(=O)N1CC(F)(COCCN2C[C@H]3CC(=O)N(c4cc(C(F)(F)F)cc(C)n4)[C@@H]3C(=O)N(C)c3cccc(Cl)c32)C1` [Example 285, (3aR,11aS)-5-(2-((1-acryloyl-3-fluoroazetidin-3-yl)methoxy)ethyl)-6-chloro-10-methyl-1-(6-methyl-4-(trifluoromethyl)pyridin-2-yl)-1,3a,4,5,10,11a-hexahydro-2H-benzo[b]pyrrolo[2,3-f][1,4]diazocine-2,11(3H)-dione], for which the Kinact/Kl stood at 1.98e+06 M⁻¹ s⁻¹.

The compound `C=CC(=O)NC1Cc2ccc(CN3C[C@H]4CC(=O)N(c5cc(C(F)(F)F)cc(C)n5)[C@@H]4C(=O)N(C)c4cccc(Cl)c43)cc2C1` (stereo partly drawn) [Example 286, N-(5-(((3aR,11aS)-6-chloro-10-methyl-1-(6-methyl-4-(trifluoromethyl)pyridin-2-yl)-2,11-dioxo-1,2,3,3a,4,10,11,11a-octahydro-5H-benzo[b]pyrrolo[2,3-f][1,4]diazocin-5-yl)methyl)-2,3-dihydro-1H-inden-2-yl)acrylamide] displayed a Kinact/Kl of 610000 M⁻¹ s⁻¹.

`Cc1cc(C(F)(F)F)cc(N2C(=O)C[C@@H]3CN(CCCC(F)CNC(=O)/C=C/CN(C)C)c4c(Cl)cccc4N(C)C(=O)[C@H]32)n1` (stereo partly drawn) [Example 295, (E)-N-(5-((3aR,11aS)-6-chloro-10-methyl-1-(6-methyl-4-(trifluoromethyl)pyridin-2-yl)-2,11-dioxo-1,2,3,3a,4,10,11,11a-octahydro-5H-benzo[b]pyrrolo[2,3-f][1,4]diazocin-5-yl)-2-fluoropentyl)-4-(dimethylamino)but-2-enamide] gave a Kinact/Kl of 1.62e+06 M⁻¹ s⁻¹.

As for `Cc1cc(C(F)(F)F)cc(N2C(=O)C[C@@H]3CN(CCCC(F)(F)CNC(=O)/C=C/CN(C)C)c4c(Cl)cccc4N(C)C(=O)[C@H]32)n1` [Example 296, (E)-N-(5-((3aR,11aS)-6-chloro-10-methyl-1-(6-methyl-4-(trifluoromethyl)pyridin-2-yl)-2,11-dioxo-1,2,3,3a,4,10,11,11a-octahydro-5H-benzo[b]pyrrolo[2,3-f][1,4]diazocin-5-yl)-2,2-difluoropentyl)-4-(dimethylamino)but-2-enamide], the Kinact/Kl was determined as 3e+06 M⁻¹ s⁻¹.

As for `C=C(CN(C)C)C(=O)N1CC(CN2C[C@H]3CC(=O)N(c4cc(C(F)(F)F)cc(C)n4)[C@@H]3C(=O)N(C)c3cccc(Cl)c32)C1` [Example 297, (3aR,11aS)-6-chloro-5-((1-(2-((dimethylamino)methyl)acryloyl)azetidin-3-yl)methyl)-10-methyl-1-(6-methyl-4-(trifluoromethyl)pyridin-2-yl)-1,3a,4,5,10,11a-hexahydro-2H-benzo[b]pyrrolo[2,3-f][1,4]diazocine-2,11(3H)-dione], the Kinact/Kl turned out to be 1.47e+06 M⁻¹ s⁻¹.

With `C=C(CN(C)C)C(=O)N1CC(CCN2C[C@H]3CC(=O)N(c4cc(C(F)(F)F)cc(C)n4)[C@@H]3C(=O)N(C)c3cccc(Cl)c32)C1` [Example 298, (3aR,11aS)-6-chloro-5-(2-(1-(2-((dimethylamino)methyl)acryloyl)azetidin-3-yl)ethyl)-10-methyl-1-(6-methyl-4-(trifluoromethyl)pyridin-2-yl)-1,3a,4,5,10,11a-hexahydro-2H-benzo[b]pyrrolo[2,3-f][1,4]diazocine-2,11(3H)-dione], the Kinact/Kl came to 3.64e+06 M⁻¹ s⁻¹.

In the case of `C=C(CN(C)C)C(=O)N1CC(CCCN2C[C@H]3CC(=O)N(c4cc(C(F)(F)F)cc(C)n4)[C@@H]3C(=O)N(C)c3cccc(Cl)c32)C1` [Example 299, (3aR,11aS)-6-chloro-5-(3-(1-(2-((dimethylamino)methyl)acryloyl)azetidin-3-yl)propyl)-10-methyl-1-(6-methyl-4-(trifluoromethyl)pyridin-2-yl)-1,3a,4,5,10,11a-hexahydro-2H-benzo[b]pyrrolo[2,3-f][1,4]diazocine-2,11(3H)-dione], the Kinact/Kl was found to be 1.99e+06 M⁻¹ s⁻¹.

For the compound `C=C(CN(C)C)C(=O)N1CC(C(F)CCCN2C[C@H]3CC(=O)N(c4cc(C(F)(F)F)cc(C)n4)[C@@H]3C(=O)N(C)c3cccc(Cl)c32)C1` (stereo partly drawn) [Example 300, (3aR,11aS)-6-chloro-5-(4-(1-(2-((dimethylamino)methyl)acryloyl)azetidin-3-yl)-4-fluorobutyl)-10-methyl-1-(6-methyl-4-(trifluoromethyl)pyridin-2-yl)-1,3a,4,5,10,11a-hexahydro-2H-benzo[b]pyrrolo[2,3-f][1,4]diazocine-2,11(3H)-dione], the Kinact/Kl came to 3.93e+06 M⁻¹ s⁻¹.

For the compound `C=C(CN(C)C)C(=O)N1CC(CC(F)CCN2C[C@H]3CC(=O)N(c4cc(C(F)(F)F)cc(C)n4)[C@@H]3C(=O)N(C)c3cccc(Cl)c32)C1` (stereo partly drawn) [Example 301, (3aR,11aS)-6-chloro-5-(4-(1-(2-((dimethylamino)methyl)acryloyl)azetidin-3-yl)-3-fluorobutyl)-10-methyl-1-(6-methyl-4-(trifluoromethyl)pyridin-2-yl)-1,3a,4,5,10,11a-hexahydro-2H-benzo[b]pyrrolo[2,3-f][1,4]diazocine-2,11(3H)-dione], the Kinact/Kl was 1.78e+06 M⁻¹ s⁻¹.

In turn, `C=C(CN(C)C)C(=O)N1CC(CCC(F)CN2C[C@H]3CC(=O)N(c4cc(C(F)(F)F)cc(C)n4)[C@@H]3C(=O)N(C)c3cccc(Cl)c32)C1` (stereo partly drawn) [Example 302, (3aR,11aS)-6-chloro-5-(4-(1-(2-((dimethylamino)methyl)acryloyl)azetidin-3-yl)-2-fluorobutyl)-10-methyl-1-(6-methyl-4-(trifluoromethyl)pyridin-2-yl)-1,3a,4,5,10,11a-hexahydro-2H-benzo[b]pyrrolo[2,3-f][1,4]diazocine-2,11(3H)-dione] came in with a Kinact/Kl of 3.04e+06 M⁻¹ s⁻¹.

Turning to `C#CC(=O)N1CC(F)(COCCN2C[C@H]3CC(=O)N(c4cc(C(F)(F)F)cc(C)n4)[C@@H]3C(=O)N(C)c3cccc(Cl)c32)C1` [Example 303, (3aR,11aS)-6-chloro-5-(2-((3-fluoro-1-propioloylazetidin-3-yl)methoxy)ethyl)-10-methyl-1-(6-methyl-4-(trifluoromethyl)pyridin-2-yl)-1,3a,4,5,10,11a-hexahydro-2H-benzo[b]pyrrolo[2,3-f][1,4]diazocine-2,11(3H)-dione], the Kinact/Kl is 1.8e+06 M⁻¹ s⁻¹.

`Cc1cc(C(F)(F)F)cc(N2C(=O)C[C@@H]3CN(CCOCC4(F)CN(C(=O)/C=C/CN(C)C)C4)c4c(Cl)cccc4N(C)C(=O)[C@H]32)n1` [Example 304, (3aR,11aS)-6-chloro-5-(2-((1-((E)-4-(dimethylamino)but-2-enoyl)-3-fluoroazetidin-3-yl)methoxy)ethyl)-10-methyl-1-(6-methyl-4-(trifluoromethyl)pyridin-2-yl)-1,3a,4,5,10,11a-hexahydro-2H-benzo[b]pyrrolo[2,3-f][1,4]diazocine-2,11(3H)-dione]: the Kinact/Kl was 1.87e+06 M⁻¹ s⁻¹.

Compound `C=C(CN(C)C)C(=O)N1CC(F)(COCCN2C[C@H]3CC(=O)N(c4cc(C(F)(F)F)cc(C)n4)[C@@H]3C(=O)N(C)c3cccc(Cl)c32)C1` [Example 305, (3aR,11aS)-6-chloro-5-(2-((1-(2-((dimethylamino)methyl)acryloyl)-3-fluoroazetidin-3-yl)methoxy)ethyl)-10-methyl-1-(6-methyl-4-(trifluoromethyl)pyridin-2-yl)-1,3a,4,5,10,11a-hexahydro-2H-benzo[b]pyrrolo[2,3-f][1,4]diazocine-2,11(3H)-dione] registered a Kinact/Kl of 1.82e+06 M⁻¹ s⁻¹.
